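These data come from cells grown in 96-well plates and exposed to compound for 48 hours at five concentrations. GI50: concentration for 50% inhibition of growth.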 The source made the active and inactive calls. No stated cut-off is given here; in the data, active = GI50 up to about 1.1 µM and inactive = higher.
Tests used:
Test in all cases: NCI tumour cell line growth inhibition, 48 h
DMS-114 = system: DMS-114
HOP-18 = system: HOP-18
KM-20L2 = system: KM-20L2
LXFL 529 = system: LXFL 529
SNB-78 = system: SNB-78
XF498 = system: XF498
RXF 631 = system: RXF 631
BT-549 = system: BT-549
T47D = system: T47D

Measured: GI50

Cc1nc2cc3nc4ccccc4c(O)c3cc2s1
inactive: DMS-114 > 100 µM | HOP-18 16.7 µM | KM-20L2 > 100 µM | LXFL 529 > 100 µM | SNB-78 > 100 µM | XF498 > 100 µM

COC(=O)N/N=C(\C)CC(=O)Nc1cccc([N+](=O)[O-])c1
inactive: DMS-114 > 100 µM | KM-20L2 > 100 µM | LXFL 529 > 100 µM | SNB-78 > 100 µM | XF498 > 100 µM

CCC1C(=O)OCc2c1cc1n(c2=O)CCC12OCCO2 (stereo not drawn)
inactive: DMS-114 > 100 µM | KM-20L2 > 100 µM | LXFL 529 > 100 µM | SNB-78 > 100 µM | XF498 > 100 µM

O=[N+]([O-])c1ccc(NSc2ccccc2)cc1
inactive: DMS-114 21 µM | HOP-18 > 100 µM | KM-20L2 31.8 µM | LXFL 529 14.3 µM | SNB-78 38.3 µM | XF498 31.1 µM

COc1ccc(CCn2c(=O)c3ccccc3n(C)c2=O)cc1
inactive: DMS-114 11.2 µM | KM-20L2 63.4 µM | LXFL 529 26.1 µM | SNB-78 36.5 µM | XF498 37.2 µM

COc1cc(C(N)=O)c(OC)c(OC)c1OC
inactive: DMS-114 > 100 µM | KM-20L2 > 100 µM | LXFL 529 > 100 µM | RXF 631 > 100 µM | SNB-78 > 100 µM

CC(=O)OCC1OC(OC2C(CSC3OC(COC(C)=O)C(OC(C)=O)C(OC(C)=O)C3OC(C)=O)OC(OC(C)=O)C(OC(C)=O)C2OC(C)=O)C(OC(C)=O)C(OC(C)=O)C1OC(C)=O (stereo not drawn)
inactive: DMS-114 > 100 µM | KM-20L2 > 100 µM | LXFL 529 > 100 µM | SNB-78 > 100 µM | XF498 > 100 µM

Nc1c(S(=O)(=O)c2ccc(Cl)cc2)c2nc3ccccc3nc2n2ccnc12
inactive: DMS-114 54 µM | HOP-18 22.8 µM | LXFL 529 > 100 µM | SNB-78 > 100 µM | XF498 65.8 µM

CN(C)CC1CCCC/C1=N/O (stereo not drawn)
inactive: DMS-114 > 100 µM | HOP-18 > 100 µM | KM-20L2 > 100 µM | LXFL 529 > 100 µM | RXF 631 > 100 µM | SNB-78 > 100 µM

[O-][S+]1c2ccccc2N=C(c2ccc3ccccc3c2)CC1c1ccccc1F (stereo not drawn)
inactive: DMS-114 > 100 µM | HOP-18 > 100 µM | KM-20L2 > 100 µM | LXFL 529 > 100 µM | RXF 631 > 100 µM | XF498 > 100 µM

COc1c(Cl)cc(NC(=S)C#N)cc1Cl
inactive: BT-549 16.6 µM | DMS-114 15.6 µM | HOP-18 8.53 µM | KM-20L2 20.1 µM | LXFL 529 22.2 µM | RXF 631 19.7 µM | SNB-78 26.7 µM | T47D 12.6 µM

COC1C2C=CC(C2)[C@H]1[N+](=O)[O-] (stereo partly drawn)
inactive: DMS-114 > 100 µM | KM-20L2 > 100 µM | LXFL 529 > 100 µM | RXF 631 > 100 µM | SNB-78 > 100 µM

O=C(Cc1nc2ccccc2c(=O)n1-c1ccccc1Cl)c1ccncc1
inactive: DMS-114 > 100 µM | HOP-18 > 100 µM | KM-20L2 > 100 µM | LXFL 529 > 100 µM | RXF 631 > 100 µM | SNB-78 > 100 µM

— ChEMBL document CHEMBL1201862, “PubChem BioAssay data set” (2004)
